Measurements reported in patent US8048825B2, “Haloalkylsulfonanilide derivatives or salt thereof, herbicide comprising the derivatives as active ingredient, and use of the herbicide” (Nihon Nohyaku Co., Ltd., priority 2006, dated 2011).

How the values were obtained:
Format in all cases: in vivo
[1] = test system: Scirpus juncoides; assay: Herbicidal efficacy on paddy field weeds of pre-emergence stage (Pre), Test Example 1; conditions: 1000 g/ha as active ingredient, examined after 21 days
Method in brief: (§1)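 Clay-loam pots sown with Scirpus juncoides, covered with soil containing Lindernia procumbens seed, flooded to 5 cm. Next day formulated compound applied dropwise to water at 1000 g/ha a.i. Greenhouse-grown; growth inhibition versus untreated scored 0–5 after 21 days.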

[2] = test system: Lindernia procumbens; assay: as above; conditions: 1000 g/ha as active ingredient, examined after 21 days
Method in brief: as §1

[3] = test system: Echinochloa crus-galli; assay: Herbicidal effect on paddy field weeds of post-emergence stage (Post), Test Example 2; conditions: one-leaf stage, 1000 g/ha as active ingredient, examined after 21 days
Method in brief: (§2)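 Scirpus juncoides and Echinochloa crus-galli sown in clay loam, with Lindernia procumbens seed in the soil cover, under 5 cm flooding in greenhouse. At one-leaf stage, 1000 g/ha active ingredient applied to pot water. Efficacy scored visually 0–5 against untreated plants at 21 days after treatment.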

[4] = test system: Scirpus juncoides; assay: as above; conditions: one-leaf stage, 1000 g/ha as active ingredient, examined after 21 days
Method in brief: as §2

[5] = test system: Lindernia procumbens; assay: as above; conditions: one-leaf stage, 1000 g/ha as active ingredient, examined after 21 days
Method in brief: as §2

Compound	Scirpus juncoides pre (herbicidal effect) [1]	Lindernia procumbens pre (herbicidal effect) [2]	Echinochloa crus-galli post (herbicidal effect) [3]	Scirpus juncoides post (herbicidal effect) [4]	Lindernia procumbens post (herbicidal effect) [5]
CCOC(=O)N(c1ccccc1CN1CCC(C)(c2ccccc2F)OC1=O)S(=O)(=O)C(F)(F)F (racemic) [Compound 1-430]	5 (100% herbicidal effect, phytotoxicity)	5 (100% herbicidal effect, phytotoxicity)	4 (90%-99% herbicidal effect, phytotoxicity)	4 (90%-99% herbicidal effect, phytotoxicity)	5 (100% herbicidal effect, phytotoxicity)
COC(=O)N(c1ccccc1CN1CCC(C)(c2c(F)cccc2F)OC1=O)S(=O)(=O)C(F)(F)F (racemic) [Compound 1-440]	4 (90%-99% herbicidal effect, phytotoxicity)	5 (100% herbicidal effect, phytotoxicity)	4 (90%-99% herbicidal effect, phytotoxicity)	4 (90%-99% herbicidal effect, phytotoxicity)	5 (100% herbicidal effect, phytotoxicity)
CCOC(=O)N(c1ccccc1CN1CCC(C)(c2c(F)cccc2F)OC1=O)S(=O)(=O)C(F)(F)F (racemic) [Compound 1-441]	5 (100% herbicidal effect, phytotoxicity)	5 (100% herbicidal effect, phytotoxicity)	5 (100% herbicidal effect, phytotoxicity)	4 (90%-99% herbicidal effect, phytotoxicity)	5 (100% herbicidal effect, phytotoxicity)
CCC1(C(C)C)CCN(Cc2ccccc2NS(=O)(=O)C(F)(F)F)C(=O)O1 (racemic) [Compound 1-450]	5 (100% herbicidal effect, phytotoxicity)	5 (100% herbicidal effect, phytotoxicity)	4 (90%-99% herbicidal effect, phytotoxicity)	4 (90%-99% herbicidal effect, phytotoxicity)	5 (100% herbicidal effect, phytotoxicity)
CCOC(=O)N(c1ccccc1CN1CCC(CC)(C(C)C)OC1=O)S(=O)(=O)C(F)(F)F (racemic) [Compound 1-452]	5 (100% herbicidal effect, phytotoxicity)	5 (100% herbicidal effect, phytotoxicity)	4 (90%-99% herbicidal effect, phytotoxicity)	4 (90%-99% herbicidal effect, phytotoxicity)	5 (100% herbicidal effect, phytotoxicity)
CCC1(C(C)C)CCN(Cc2ccccc2N(C(=O)OCC(C)C)S(=O)(=O)C(F)(F)F)C(=O)O1 (racemic) [Compound 1-455]	5 (100% herbicidal effect, phytotoxicity)	5 (100% herbicidal effect, phytotoxicity)	5 (100% herbicidal effect, phytotoxicity)	4 (90%-99% herbicidal effect, phytotoxicity)	5 (100% herbicidal effect, phytotoxicity)
CCOC(=O)N(c1ccccc1CN1CCC(C)(Cc2ccccc2F)OC1=O)S(=O)(=O)C(F)(F)F (racemic) [Compound 1-463]	5 (100% herbicidal effect, phytotoxicity)	5 (100% herbicidal effect, phytotoxicity)	4 (90%-99% herbicidal effect, phytotoxicity)	4 (90%-99% herbicidal effect, phytotoxicity)	5 (100% herbicidal effect, phytotoxicity)
CCCC1(CC)CCN(Cc2ccccc2NS(=O)(=O)C(F)(F)F)C(=O)O1 (racemic) [Compound 1-494]	5 (100% herbicidal effect, phytotoxicity)	5 (100% herbicidal effect, phytotoxicity)	4 (90%-99% herbicidal effect, phytotoxicity)	4 (90%-99% herbicidal effect, phytotoxicity)	5 (100% herbicidal effect, phytotoxicity)
CCCC1(CC)CCN(Cc2ccccc2N(C(=O)OCC)S(=O)(=O)C(F)(F)F)C(=O)O1 (racemic) [Compound 1-496]	5 (100% herbicidal effect, phytotoxicity)	5 (100% herbicidal effect, phytotoxicity)	4 (90%-99% herbicidal effect, phytotoxicity)	4 (90%-99% herbicidal effect, phytotoxicity)	5 (100% herbicidal effect, phytotoxicity)
CCCC1(CC)CCN(Cc2ccccc2N(C(=O)OCC(C)C)S(=O)(=O)C(F)(F)F)C(=O)O1 (racemic) [Compound 1-499]	5 (100% herbicidal effect, phytotoxicity)	5 (100% herbicidal effect, phytotoxicity)	4 (90%-99% herbicidal effect, phytotoxicity)	4 (90%-99% herbicidal effect, phytotoxicity)	5 (100% herbicidal effect, phytotoxicity)
CCCC1(CC)CCN(Cc2ccccc2N(C(=O)Oc2ccccc2)S(=O)(=O)C(F)(F)F)C(=O)O1 (racemic) [Compound 1-501]	5 (100% herbicidal effect, phytotoxicity)	5 (100% herbicidal effect, phytotoxicity)	5 (100% herbicidal effect, phytotoxicity)	4 (90%-99% herbicidal effect, phytotoxicity)	5 (100% herbicidal effect, phytotoxicity)
O=C1OCCCCN1Cc1ccccc1NS(=O)(=O)C(F)(F)F [2-1]	4 (90%-99% herbicidal effect, phytotoxicity)	4 (90%-99% herbicidal effect, phytotoxicity)	4 (90%-99% herbicidal effect, phytotoxicity)	4 (90%-99% herbicidal effect, phytotoxicity)	4 (90%-99% herbicidal effect, phytotoxicity)
CCOC(=O)N(c1ccccc1CN1CCCCOC1=O)S(=O)(=O)C(F)(F)F [2-3]	4 (90%-99% herbicidal effect, phytotoxicity)	4 (90%-99% herbicidal effect, phytotoxicity)	4 (90%-99% herbicidal effect, phytotoxicity)	4 (90%-99% herbicidal effect, phytotoxicity)	4 (90%-99% herbicidal effect, phytotoxicity)
CCCOC(=O)N(c1ccccc1CN1CCCCOC1=O)S(=O)(=O)C(F)(F)F [2-4]	4 (90%-99% herbicidal effect, phytotoxicity)	4 (90%-99% herbicidal effect, phytotoxicity)	4 (90%-99% herbicidal effect, phytotoxicity)	4 (90%-99% herbicidal effect, phytotoxicity)	4 (90%-99% herbicidal effect, phytotoxicity)
